Measurements published in patent US20240016781A1, “TREATMENT OF KRAS MUTANT CANCERS” (MEI Pharma, Inc., priority 2020, published 2024).
Values joined by “and” are separate entries in the source; they are usually repeats but may differ in a detail not shown here. Equal entries are not always repeated.

What was measured:
Experiment in all cases: 72-hour CellTiter-Glo 2.0 growth inhibition screen (single agent, 9x9 combination dose matrix)
Type in all cases: cell-based
Gp2D = system: Gp2D
Description: (§1) Growth inhibition was determined using a 72-hour CellTiter-Glo®2.0 proliferation assay. Combination format was a 9×9 dose matrix. Six of the 20 cell lines received the original two combinations whilst the remaining 14 cell lines received two additional combinations resulting in four combinations in total. Results have been supplied as both Chalice Analyzer files (.mcc) and raw luminescence data.
(§2) Cell lines that have been preserved in liquid nitrogen are thawed and expanded in growth media (see Appendix I). Once cells have reached expected doubling times, screening begins. Cells are seeded in 25 μl of growth media in black 384-well tissue culture treated plates at 500 cells per well (as noted in Analyzer). Cells are equilibrated in assay plates via centrifugation and placed at 37° C. 5% CO2 for twenty-four hours before treatment. […] Compounds are transferred to assay plates using and Echo acoustic liquid handling system. […] of each compound was added at the appropriate concentration for all combination dose points. Therefore, final assay volume would be 25.05 μl. Assay plates are incubated with compound for 3 days and are then analyzed using CellTiter-Glo 2.0. All data points are collected via automated processes and are subject to quality control and analyzed.
(§3) If T≥V_0:100*(1−(T−V_0)/(V−V_0)) • where T is the signal measure for a test article, V is the untreated/vehicle-treated control measure, and Vo is the untreated/vehicle control measure at time zero (also colloquially referred as TO plates). This formula is derived from the Growth Inhibition calculation used in the National Cancer Institute's NCI-60 high throughput screen. For the purposes of this disclosure, all data analysis was performed in Growth Inhibition (except where noted).
(§4) Inhibition is also provided as a measure of cell viability. […] Inhibition of 100% represents no doubling of cell numbers during the treatment window. Both cytostatic and cytotoxic treatments can yield an Inhibition percentage of 100%. Inhibition percentage is calculated as the following: […]
(§5) The fractional inhibition for each component agent and combination point in the matrix is calculated relative to the median of all untreated/vehicle-treated control wells. The Synergy Score equation integrates the experimentally-observed activity volume at each point in the matrix in excess of a model surface numerically derived from the activity of the component agents using the Loewe model for additivity. Additional terms in the Synergy Score equation (above) are used to normalize for various dilution factors used for individual agents and to allow for comparison of synergy scores across an entire experiment. The inclusion of positive inhibition gating or an Idata multiplier removes noise near the zero-effect level, and biases results for synergistic interactions at that occur at high activity levels. Combinations with higher maximum Growth Inhibition (GI) effects or those which are synergistic at low concentrations will have higher Synergy Scores.
(§6) The CI is a rough estimate of how much drug was needed in combination relative to the single agent doses required to achieve the chosen effect level. CI values in the range of 0.5-0.7 are typical for in vitro measurements of current clinical combinations. The CI error (σCI) is calculated using standard error propagation through the CI calculation based on the isobologram errors. In the Chalice Analyzer, the Best CI is reported from the many CI values calculated for each Icut crossing combination. Among all the measured CI values, the one with the largest single-to-noise level (1−CI)/σCI is reported as the Best CI. Best CI Level is the effect level from which the CI is calculated.

NCI-H1792 = system: NCI-H1792
Description: as §1, §2, §3, §4, §5, §6

SW837 = system: SW837
Description: as §1, §2, §3, §4, §5, §6

NCI-H23 = system: NCI-H23
Description: as §1, §2, §3, §4, §5, §6

NCI-H2030 = system: NCI-H2030
Description: as §1, §2, §3, §4, §5, §6

LS-513 = system: LS-513
Description: as §1, §2, §3, §4, §5, §6

HCC1171 = settings: HCC1171, Lung; growth inhibition (GI), AUC, single agent, 72 h
Description: as §1, §2, §3, §4, §5, §6

NCI-H1373 = system: NCI-H1373
Description: as §1, §2, §3, §4, §5, §6

HPAF-II = system: HPAF-II
Description: as §1, §2, §3, §4, §5, §6

TOV-21G = settings: TOV-21G, Ovary; growth inhibition (GI), AUC, single agent, 72 h
Description: as §1, §2, §3, §4, §5, §6

AsPC-1 = system: AsPC-1
Description: as §1, §2, §3, §4, §5, §6

SW48 = system: SW48
Description: as §1, §2, §3, §4, §5, §6

HCC44 = settings: HCC44, Lung; growth inhibition (GI), AUC, single agent, 72 h
Description: as §1, §2, §3, §4, §5, §6

Panc 04.03 = system: Panc 04.03
Description: as §1, §2, §3, §4, §5, §6

SW48 KRAS (G12C/+) = system: SW48 KRAS (G12C/+)
Description: as §1, §2, §3, §4, §5, §6

MIA PaCa-2 = system: MIA PaCa-2
Description: as §1, §2, §3, §4, §5, §6

NCI-H358 = system: NCI-H358
Description: as §1, §2, §3, §4, §5, §6

KYSE-410 = system: KYSE-410
Description: as §1, §2, §3, §4, §5, §6

Structure (SMILES): C=C(F)C(=O)N1CCN(c2nc(OC[C@@H]3CCCN3C)nc3c2CCN(c2cccc4cccc(Cl)c24)C3)C[C@@H]1CC#N [MRTX849]
- Loewe Volume (Gp2D): 0.46 and 0.37
- Response Area (Gp2D; Gp2D, Colorectal, growth inhibition (GI), AUC, single agent, 72 h): 1.86
- HSA volume (NCI-H1792): 4.71 and 3.40
- Loewe Volume (NCI-H1792): 5.13 and 3.37
- Response Area (NCI-H1792; NCl-H1792, Lung, growth inhibition (GI), AUC, single agent, 72 h): 3.02
- HSA volume (SW837): 6.87 and 4.50
- Loewe Volume (SW837): 5.57
- Response Area (SW837; SW837, Colorectal, growth inhibition (GI), AUC, single agent, 72 h): 5.55
- HSA volume (NCI-H23): 5.10 and 2.97
- Loewe Volume (NCI-H23): 4.80 and 2.46
- Response Area (NCI-H23; NCl-H23, Lung, growth inhibition (GI), AUC, single agent, 72 h): 4.15
- HSA volume (NCI-H2030): 1.90 and 1.28
- Response Area (NCI-H2030; NCl-H2030, Lung, growth inhibition (GI), AUC, single agent, 72 h): 2.65
- HSA volume (LS-513): 0.51 and 0.34
- Loewe Volume (LS-513): 0.85 and 0.46
- Response Area (LS-513; LS-513, Colorectal, growth inhibition (GI), AUC, single agent, 72 h): 1.56
- Response Area (HCC1171): 5.95
- HSA volume (NCI-H1373): 2.06 and 1.03
- Response Area (NCI-H1373; NCl-H1373, Lung, growth inhibition (GI), AUC, single agent, 72 h): 4.82
- HSA volume (HPAF-II): 1.34 and 0.93
- Response Area (HPAF-II; HPAF-II, Pancreas, growth inhibition (GI), AUC, single agent, 72 h): 2.04
- Response Area (TOV-21G): 2.28
- Loewe Volume (AsPC-1): 0.71 and 0.37
- Response Area (AsPC-1; AsPC-1, Pancreas, growth inhibition (GI), AUC, single agent, 72 h): 2.27
- Bliss Volume (SW48): 9.14 and 4.79
- HSA volume (SW48): 3.40 and 2.30
- Loewe Volume (SW48): 6.95 and 4.49
- Response Area (SW48; SW48, Colorectal, growth inhibition (GI), AUC, single agent, 72 h): 2.78
- Response Area (HCC44): 3.02
- HSA volume (Panc 04.03): 0.64 and 0.37
- Loewe Volume (Panc 04.03): 3.31 and 1.76
- Response Area (Panc 04.03; Panc 04.03, Pancreas, growth inhibition (GI), AUC, single agent, 72 h): 2.20
- HSA volume (SW48 KRAS (G12C/+)): 4.53
- Loewe Volume (SW48 KRAS (G12C/+)): 4.75 and 2.96
- Response Area (SW48 KRAS (G12C/+); SW48 KRAS (G12C/+), Colorectal, growth inhibition (GI), AUC, single agent, 72 h): 2.88
- HSA volume (MIA PaCa-2): 5.25 and 2.97
- Loewe Volume (MIA PaCa-2): 4.29 and 2.30
- HSA volume (NCI-H358): 2.90
- Response Area (NCI-H358; NCl-H358, Lung, growth inhibition (GI), AUC, single agent, 72 h): 5.85
- Bliss Volume (KYSE-410): 7.25 and 5.69
- HSA volume (KYSE-410): 2.25 and 1.80
- Loewe Volume (KYSE-410): 6.19 and 5.14
- Response Area (KYSE-410; KYSE-410, Esophageal, growth inhibition (GI), AUC, single agent, 72 h): 2.24
